Source: patent publication US8192717B2, “Composition for diagnosing amyloid-related diseases” (Nagasaki University, priority 2004, dated 2012)

How the values were obtained:
Aβ(1-40) aggregates [1] = target: T1, Aβ(1-40) aggregates (Homo sapiens, UniProt P05067); assay: In vitro binding of [125I]-labelled compounds to Aβ aggregates (filtration, radioactivity on filter); conditions: [125I]-labelled compound; radioactivity remaining on filter in presence vs absence of Aβ aggregates
T1 construct: The amyloid β protein (Human, 1-40) [HCl form]; purchased Peptide Institute, Inc
Method: (§1) Aβ aggregates was dissolved in a buffer (pH 7.4) that contained 10 mM sodium phosphate and 1 mM EDTA, resulting in a concentration of 0.5 mg/ml. Thereafter, the obtained solution was incubated at 37° C. for 36 to 42 hours. A binding experiment was carried out using 12×75 mm borosilicate glass tubes. […] The obtained mixture was left at room temperature for 3 hours. Non-specific bond was calculated using nonradioactive compound 11 (1 μM). […] The radioactivity of a substance remaining in the filter used in filtration was measured with a γ counter. With regard to [^125I] compound 11, the Kd value thereof was calculated by the Scatchard analysis. In addition, using [^125I] compound 11 as a radioactive ligand, an inhibition experiment was carried out by the following method using the Aβ(1-40) aggregates and the Aβ(1-42) aggregates. […] The obtained mixture was left at room temperature for 3 hours. Non-specific bond was calculated using nonradioactive compound 11 (1 μM). The 50% inhibitory concentration was calculated using GraphPad Prism (GraphPad Software), and the inhibition constant (Ki value) was calculated according to the formula of Cheng-Prusoff, Ki=IC50/(1+[L]/Kd). In this formula, [L] represents the concentration of [^125I] compound 11, and Kd represents the dissociation constant of [^125I] compound 11 to the Aβ(1-40) aggregates and the Aβ(1-42) aggregates.

[2] = system: senile plaque amyloid, cerebrovascular amyloid and neurofibrillary degeneration in brain tissues of patient with Alzheimer's disease; assay: Binding experiment using brain tissues of patient with Alzheimer's disease (fluorescence microscopy of sections); design: species or system human; conditions: 100 nM, room temperature, 10 minutes; temporal lobe sections
Method: Tissues at the temporal lobe site of the brain of a patient with Alzheimer's disease were fixed with formalin, and were then embedded in paraffin. A section with a thickness of 5 μm was prepared from the paraffin block, and the paraffin was then removed by an ordinary treatment with xylene and ethanol (Lippa, C. F., Nee, L. E., Mori, H & George-Hyslop, P. (1998) The Lancet 352:1117-1118). As the final stage, neutralization was carried out with a phosphate buffer. Thereafter, compounds 10, 11, 19, and 20 were reacted in a concentration of 100 nM at room temperature for 10 minutes. Thereafter, the reaction product was washed with a phosphate buffer three times, and then with 50% ethanol three time, so as to terminate the reaction. Thereafter, the resultant was dehydrated by treatments with alcohol and xylene, followed by embedding with Entellan(R) new. The bond of the above compound was confirmed by image observation with a CCD camera (M-3204C) included with a fluorescence microscope (Olympus BX50).

Aβ(1-40) aggregates [3] = target: T1, Aβ(1-40) aggregates; assay: Inhibition experiment using [125I] compound 11 as radioactive ligand, Aβ(1-40) aggregates; format: binding; conditions: radioligand [125I] compound 11; Cheng-Prusoff; read-out: Inhibition constant (Ki, nM) Aβ(1-40)
Method: as §1

Aβ(1-42) aggregates [4] = target: T2, Aβ(1-42) aggregates (Homo sapiens, UniProt P05067); assay: Inhibition experiment using [125I] compound 11 as radioactive ligand, Aβ(1-42) aggregates; format: binding; conditions: radioligand [125I] compound 11; Cheng-Prusoff; read-out: Inhibition constant (Ki, nM) Aβ(1-42)
T2 construct: the amyloid β protein (Human, 1-42) [TFA form]; purchased Peptide Institute, Inc
Method: as §1

[5] = Radioactivity distribution in mouse body after intravenous administration of radioiodine labeled forms; conditions: normal mice, intravenous, [125I]-labelled form
Method: Thereafter, 100 μl (0.5 to 1 μCi) of each labeled form was intravenously administered to each group consisting of three to five 5-week-old ddY male mice (25 to 30 g). 2, 10, 30, and 60 minutes after the intravenous administration, such mice were decapitated, and blood was collected. Thereafter, organs were excised, and the weight and radioactivity thereof were then measured.

Aβ(1-42) aggregates [6] = target: T2, Aβ(1-42) aggregates; assay: Saturation experiment of [125I] compound 11 with Scatchard analysis, Aβ(1-42) aggregates; format: binding; conditions: read-out: dissociation equilibrium constant (Kd value)
Method: as §1

Aβ(1-40) aggregates [7] = target: T1, Aβ(1-40) aggregates; assay: Saturation experiment of [125I] compound 11 with Scatchard analysis, Aβ(1-40) aggregates; format: binding; conditions: read-out: dissociation equilibrium constant (Kd value)
Method: as §1

T1 sequence (P05067 672-711 limits assumed): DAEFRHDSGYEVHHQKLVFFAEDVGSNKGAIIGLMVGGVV
T2 sequence (P05067 672-713 limits assumed): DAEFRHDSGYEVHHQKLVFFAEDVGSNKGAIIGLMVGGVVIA

| SMILES | bindability to the Aβ aggregates (Aβ(1-40) aggregates [1]) | Ki (Aβ(1-40) aggregates [3]) | Ki (Aβ(1-42) aggregates [4]) | washing out / disappearance of radioactivity from the brain [5] | other results |
| --- | --- | --- | --- | --- | --- |
| CNc1ccc(-c2cc(=O)c3cc(I)ccc3o2)cc1 [compound 10, 6-iodo-4′-methylaminoflavone] | high bindability | 22.6 ± 3.4 nM | 30 ± 3.4 nM | – | recognition of and binding to amyloid plaque, senile plaque having a neurodegenerative projection, cerebrovascular amyloid and neurofibrillary degeneration [2]: recognize amyloid plaque, senile plaque having a neurodegenerative projection, cerebrovascular amyloid and neurofibrillary degeneration, and bind thereto; rate of disappearance from the brain (rank among flavone derivatives) [5]: almost the same as that of [^125I] compound 11 |
| CN(C)c1ccc(-c2cc(=O)c3cc(I)ccc3o2)cc1 [compound 11, 6-iodo-4′-dimethylaminoflavone] | high bindability | 13.2 ± 0.2 nM | 15.6 ± 2.4 nM | – | bindability to senile plaque having a neurodegenerative projection and to neurofibrillary degeneration [2]: has bindability; binding to cerebrovascular amyloid [2]: specifically binds to cerebrovascular amyloid; binding to senile plaque [2]: specifically binds to senile plaque; Kd (Aβ(1-42) aggregates [6]): 17.6 ± 5.7 nM; Kd (Aβ(1-40) aggregates [7]): 12.3 ± 2.3 nM |
| COc1ccc(-c2cc(=O)c3cc(I)ccc3o2)cc1 [compound 19, 6-iodo-4′-methoxyflavone] | high bindability | 29 ± 3.2 nM | 38.3 ± 8.1 nM | – | recognition of and binding to amyloid plaque, senile plaque having a neurodegenerative projection, cerebrovascular amyloid and neurofibrillary degeneration [2]: recognize amyloid plaque, senile plaque having a neurodegenerative projection, cerebrovascular amyloid and neurofibrillary degeneration, and bind thereto; rate of disappearance from the brain (rank among flavone derivatives) [5]: fastest |
| COc1cc(/C=C/C(=O)c2cccc(I)c2)ccc1O [compound 31, (E)-3-(4-hydroxy-3-methoxyphenyl)-1-(3-iodophenyl)propan-2-en-1-one] | high binding affinity | – | – | washed out rapidly | ability to transfer to the brain (in words) [5]: transfers to the brain |
| CN(C)c1ccc(/C=C/C(=O)c2ccc(I)cc2)cc1 [compound 36, (E)-3-(4-(dimethylamino)phenyl)-1-(4-iodophenyl)propan-2-en-1-one] | high binding affinity | – | – | – | – |
| Nc1ccc(C=Cc2cc(=O)c3cc(I)ccc3o2)cc1 [compound 46, 6-iodo-4′-aminostyrylchromone] | high binding affinity | – | – | rapid disappearance of radioactivity | ability to transfer to the brain [5]: 4.9 % ID/g |
| CNc1ccc(C=Cc2cc(=O)c3cc(I)ccc3o2)cc1 [compound 47, 6-iodo-4′-methylaminostyrylchromone] | high binding affinity | – | – | rapid disappearance of radioactivity | ability to transfer to the brain [5]: 3.0 % ID/g |
| CN(C)c1ccc(C=Cc2cc(=O)c3cc(I)ccc3o2)cc1 [compound 48, 6-iodo-4′-dimethylaminostyrylchromone] | high binding affinity | – | – | – | ability to transfer to the brain (in words) [5]: low; radioactivity retention in the blood [5]: high radioactivity retention ability in the blood |
